Source: US10925856B2, “Methods and compositions involving bucindolol for the treatment of atrial fibrillation” (priority 2018, dated 2021)
Read-outs that look alike come from different tables or passages of the source.

[1] = CYP2D6 Extensive/Ultra Metabolizer
[2] = Drug Titration Period (first 42 days)
[3] = treatment-emergent AE, total follow-up

## CC(C)(Cc1c[nH]c2ccccc12)NCC(O)COc1ccccc1C#N (stereo not shown) [bucindolol, 2-(3-(1-(1H-indol-3-yl)-2-methylpropan-2-ylamino)-2-hydroxypropoxy)benzonitrile]
[1]
  HEADACHE, % of patients: (4.8%)
  HEADACHE, number of patients: 5
  HYPOTENSION, % of patients: (9.5%)
  HYPOTENSION, number of patients: 10
  IMMUNE SYSTEM DISORDERS, % of patients: (1.0%)
  IMMUNE SYSTEM DISORDERS, number of patients: 1
  INFECTIONS AND INFESTATIONS, % of patients: (28.6%)
  INFECTIONS AND INFESTATIONS, number of patients: 30
  INFLUENZA, % of patients: (2.9%)
  INFLUENZA, number of patients: 3
CYP2D6 Poor Metabolizer
  HEADACHE, % of patients: (0.0%)
  HEADACHE, number of patients: 0
  INFECTIONS AND INFESTATIONS, % of patients: (33.3%)
  INFECTIONS AND INFESTATIONS, number of patients: 4
  INFLUENZA, % of patients: (8.3%)
  INFLUENZA, number of patients: 1
  UPPER RESPIRATORY TRACT INFECTION, % of patients: (8.3%)
  UPPER RESPIRATORY TRACT INFECTION, number of patients: 1
[2]
  AC mortality or CV hosp or treatment disc. due to AE, patients N (%): 5 (4%)
  All-cause mortality, patients N (%): 0 (0%)
GENETIC-AF, all randomized patients
  AEs leading to study withdrawal (excluding death): 1.5%
Total Study On-Drug Period
  Adverse event leading to death, patients N (%): 2.3%
  Adverse events leading to study withdrawal (excluding death), patients N (%): 2 (1.5%)
Total Study On-Drug Period, listed as Bucindolol
  Adverse event leading to death, patients N (%): 3 (2.3%)
human, in vivo
  AE SOC frequency: Cardiac Disorders: 25.4%
  AE SOC frequency: Eye Disorders: 6.0%
  AE SOC frequency: Gastrointestinal Disorders: 20.9%
  AE SOC frequency: Hepatobiliary Disorders: 3.7%
  AE SOC frequency: Infections and Infestations: 28.4%
  AE SOC frequency: Investigators: 12.7%
  AE SOC frequency: Metabolism and Nutrition Disorders: 14.2%
  AE SOC frequency: Musculoskeletal and Connective Tissue Disorders: 25.4%
  AE SOC frequency: Neoplasms Benign Malignant and Unspecified: 2.2%
  AE SOC frequency: Renal and Urinary Disorders: 10.4%
  AE SOC frequency: Respiratory, Thoracic and Mediastinal Disorders: 15.7%
  AE frequency: arthralgia: 5.2%
  AE frequency: cardiac failure: 5.2%
  AE frequency: chronic kidney disease: 3.0%
  AE frequency: constipation: 6.0%
  AE frequency: epistaxis: 3.0%
  AE frequency: hematuria: 3.0%
  AE frequency: hypomagnesaemia: 3.0%
  AE frequency: hypotension: 9.7%
  AE frequency: pneumonia: 3.0%
  AE frequency: upper respiratory tract infection: 6.0%
  AE of symptomatic bradycardia or bradycardia leading to dose reduction or discontinuation of study drug, patients N (%): 4 (3.0%)
  AEs leading to permanent study drug discontinuation: 8.2%
  AEs: Bradycardia: 3.7%
  AEs: Stroke (99% on OACs): 0.0%
  Adverse event possible/probably related to study drug, patients N (%): 32 (23.9%)
  Adverse events leading to permanent study drug discontinuation, patients N (%): 11 (8.2%)
  Adverse events related to neoplasm, patients N (%): 3 (2.2%)
  Any bradycardia event, % of patients: (4%)
  Any bradycardia event, number of patients: 5
  Any bradycardia, % of patients: (4%)
  Any bradycardia, number of patients: 5
  Any serious adverse event, % of patients: (25%)
  Any serious adverse event, number of patients: 33
  Asymptomatic bradycardia event, % of patients: (0%)
  Asymptomatic bradycardia event, number of patients: 0
  Asymptomatic bradycardia, % of patients: (0%)
  Asymptomatic bradycardia, number of patients: 0
  Bradycardia event leading to study drug discontinuation, % of patients: (1%)
  Bradycardia event leading to study drug discontinuation, number of patients: 1
  Bradycardia event leading to study drug dose interruption, % of patients: (0%)
  Bradycardia event leading to study drug dose interruption, number of patients: 0
  Bradycardia event leading to study drug dose reduction, % of patients: (2%)
  Bradycardia event leading to study drug dose reduction, number of patients: 3
  CAD, % of patients: (6%)
  CAD, number of patients: 8
  Cardiac AE rate (heart failure or bradycardia events): 25%
  Cardiovascular serious adverse event, % of patients: (9%)
  Cardiovascular serious adverse event, number of patients: 12
  Catheterization, % of patients: (4%)
  Catheterization, number of patients: 5
  Heart block (Mobitz I/II, 2:1, or 3rd degree), % of patients: (0%)
  Heart block (Mobitz I/II, 2:1, or 3rd degree), number of patients: 0
  ICD Implantation, % of patients: (4%)
  ICD Implantation, number of patients: 5
  Incidence of Cr > 3.0, % of patients: (1%)
  Incidence of Cr > 3.0, number of patients: 1
  Incidence of bilirubin > 2.0, % of patients: (1%)
  Incidence of bilirubin > 2.0, number of patients: 1
  Non-CNS Embolism, % of patients: (0%)
  Non-CNS Embolism, number of patients: 0
  Pacemaker Implantation, % of patients: (1%)
  Pacemaker Implantation, number of patients: 1
  REPRODUCTIVE SYSTEM AND BREAST DISORDERS, % of patients: (0.0%)
  REPRODUCTIVE SYSTEM AND BREAST DISORDERS, number of patients: 0
  SAE SOC frequency: Infections and Infestations: 4.5%
  SAE SOC frequency: Renal and Urinary Disorders: 3.0%
  SAE SOC frequency: Respiratory, Thoracic and Mediastinal Disorders: 5.2%
  SAE frequency: Cardiac Failure: 3.0%
  SAE frequency: Cardiac Failure Congestive: 2.2%
  SAEs: Any cardiovascular event: 9.0%
  SINUS BRADYCARDIA, % of patients: (0.0%)
  SINUS BRADYCARDIA, number of patients: 0
  Stroke, % of patients: (0%)
  Stroke, number of patients: 0
  Symptomatic bradycardia event, % of patients: (4%)
  Symptomatic bradycardia event, number of patients: 5
  Symptomatic bradycardia, % of patients: (4%)
  Symptomatic bradycardia, number of patients: 5
  TIA, % of patients: (0%)
  TIA, number of patients: 0
  UPPER RESPIRATORY TRACT INFECTION, % of patients: (5.7%)
  UPPER RESPIRATORY TRACT INFECTION, number of patients: 6
human, in vivo, 42 days
  All-cause hospitalization, patients N (%): 7 (5%)
  Any serious adverse event, patients N (%): 8 (6%)
  Asymptomatic bradycardia, patients N (%): 0 (0%)
  Cardiovascular hospitalization, patients N (%): 5 (4%)
  Heart failure hospitalization, patients N (%): 1 (1%)
  Symptomatic bradycardia, patients N (%): 2 (1%)
  Treatment-related cardiovascular serious adverse event, patients N (%): 0 (0%)
  Treatment-related serious adverse event, patients N (%): 1 (1%)
In vivo
  Ablation, % of patients: (16%)
  Ablation, number of patients: 21
  Additional ECV After Successful SR, % of patients: (28%)
  Additional ECV After Successful SR, number of patients: 37
  Anti-Arrhythmic Therapy, % of patients: (34%)
  Anti-Arrhythmic Therapy, number of patients: 46
  Appropriate Firing of on ICD, % of patients: (0%)
  Appropriate Firing of on ICD, number of patients: 0
  Bradycardia AEs: none
  Rate Control Therapy, % of patients: (15%)
  Rate Control Therapy, number of patients: 20
[3]
  HEADACHE, % of patients: (4.5%)
  HEADACHE, number of patients: 6
  INFECTIONS AND INFESTATIONS, % of patients: (26.9%)
  INFECTIONS AND INFESTATIONS, number of patients: 36
  INFLUENZA, % of patients: (3.0%)
  INFLUENZA, number of patients: 4
  UPPER RESPIRATORY TRACT INFECTION, % of patients: (5.2%)
  UPPER RESPIRATORY TRACT INFECTION, number of patients: 7
treatment-emergent serious AE
  INFECTIONS AND INFESTATIONS, % of patients: (4.5%)
  INFECTIONS AND INFESTATIONS, number of patients: 6
